Experimental data: patent US4882432A, “Polycyclic-carbamic acid piperazinoalkyl esters and amides” (American Home Products Corporation, priority 1989, dated 1989)

Assays:
[1] = molecular target: T1, 5-HT1A serotonin receptor subtype (Rattus norvegicus, UniProt P19327); assay: displacement of ^3 H-8-OH DPAT from the 5-HT1A serotonin receptor subtype (Hall et al.); assay type: binding; settings: for inhibition at 1 µM: 1 μM test compound, read-out: % Inhibition at 1 μM (Affinity for 5-HT1A Receptor Sites); for Ki: calculated from IC50 values, read-out: Ki (Affinity for 5-HT1A Receptor Sites)
T1 construct: from tissue
T1 sequence (P19327 1-422): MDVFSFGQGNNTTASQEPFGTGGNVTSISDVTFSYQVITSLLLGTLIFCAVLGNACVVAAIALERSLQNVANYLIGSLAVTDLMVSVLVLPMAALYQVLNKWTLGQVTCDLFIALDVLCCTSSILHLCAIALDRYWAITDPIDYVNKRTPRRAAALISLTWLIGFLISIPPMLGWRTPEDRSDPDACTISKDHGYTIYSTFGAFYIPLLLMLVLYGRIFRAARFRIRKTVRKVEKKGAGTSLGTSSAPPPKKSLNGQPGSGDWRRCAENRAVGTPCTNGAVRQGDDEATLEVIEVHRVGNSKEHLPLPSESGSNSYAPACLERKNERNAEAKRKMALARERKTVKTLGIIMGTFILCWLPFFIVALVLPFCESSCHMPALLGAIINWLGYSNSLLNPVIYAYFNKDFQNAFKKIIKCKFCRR
Description: The serotoninergic properties of the compounds of this invention were established by the procedure of Hall et al., J. Neurochem.

[2] = molecular target: T2, limbic D2 (dopamine) receptor (Rattus norvegicus, UniProt P61169); assay: inhibition of ^3 H-spiroperidol binding to limbic brain tissue (D2 receptor affinity); settings: 1 μM test compound, read-out: % Inhibition at 1 μM (Affinity for D2 Receptor Sites)
T2 construct: from tissue
Description: The compounds of this invention are antidepressant, anxiolytic agents useful in the treatment of depression and/or anxiety as a singular, primary mental problem as well as secondary, attending problems such as sexual dysfunction. […] The D2 receptor affinity of the compounds of this invention was determined by a modification of the test procedure of Fields et al., Brain Res. 136, 578 (1977) and Yamamura et al., eds., Neurotransmitter Receptor Binding, Raven Press, N.Y. (1978) as discussed in U.S. Pat. No. 4,636,563. The percentage reduction of ^3 H-spiroperidol binding at 1 μM concentration of test compound is reported, infra.

[3] = literature; cited from earlier work

T2 sequence (P61169 whole entry): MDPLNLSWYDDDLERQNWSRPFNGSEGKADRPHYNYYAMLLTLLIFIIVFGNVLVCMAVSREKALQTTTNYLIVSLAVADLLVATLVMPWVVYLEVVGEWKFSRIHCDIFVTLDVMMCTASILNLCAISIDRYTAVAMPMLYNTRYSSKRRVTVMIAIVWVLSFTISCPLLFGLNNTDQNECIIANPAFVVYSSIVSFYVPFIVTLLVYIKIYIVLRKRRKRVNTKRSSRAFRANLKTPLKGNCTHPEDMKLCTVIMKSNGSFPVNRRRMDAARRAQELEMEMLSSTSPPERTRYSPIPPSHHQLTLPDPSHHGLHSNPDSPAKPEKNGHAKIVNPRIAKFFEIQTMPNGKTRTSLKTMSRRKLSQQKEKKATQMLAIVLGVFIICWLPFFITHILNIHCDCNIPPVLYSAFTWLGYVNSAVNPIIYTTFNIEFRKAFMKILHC

Compound | inhibition at 1 µM [1] | Ki [1] | inhibition at 1 µM [2] | inhibition at 0.1 µM ([1]; 100 nM test compound, read-out: % Inhibition at 100 nM (Affinity for 5-HT1A Receptor Sites)) | clinical efficacy as anxiolytic-antidepressant agents (in words) [3]
O=C(NCCN1CCN(c2ncccn2)CC1)NC12CC3CC(CC(C3)C1)C2 [Example 1, N-[2-[4-(2-pyrimidyl)-1-piperazinyl]ethyl]-N'-tricyclo[3.3.1.1(3,7)]dec-1-ylurea] | 91% | 52 nM | 15% | – | –
O=C(NCCN1CCN(c2cccc(Cl)c2)CC1)NC12CC3CC(CC(C3)C1)C2 [Example 3, N-[2-[4-(3-chlorophenyl)-1-piperazinyl]ethyl]-N'-tricyclo[3.3.1.1(3,7)]dec-1-ylurea] | – | – | 56% | 54% | –
Cc1nc2sccn2c(=O)c1CCN1CCC(=C(c2ccc(F)cc2)c2ccc(F)cc2)CC1 [Ritanserin] | – | – | – | – | demonstrate clinical efficacy as anxiolytic-antidepressant agents
COc1ccccc1N1CCN(CCNC(=O)NC23CC4CC(CC(C4)C2)C3)CC1 [Example 2] | 100% | – | – | – | –

The next lines start with results.

inhibition at 1 µM [1] | Ki [1] | inhibition at 1 µM [2] | inhibition at 0.1 µM ([1]; 100 nM test compound, read-out: % Inhibition at 100 nM (Affinity for 5-HT1A Receptor Sites)) | Compound | clinical efficacy as anxiolytic-antidepressant agents (in words) [3]
100% | 7 nM | 10% | – | O=C(NCCCN1CCN(c2ncccn2)CC1)NC12CC3CC(CC(C3)C1)C2 [Example 4, N-[3[4-(2-pyrimidyl)-1-piperazinyl]propyl]-N'-tricyclo[3.3.1.1(3,7)]dec-1-ylurea] | –
95% | 45 nM | 38% | – | O=C(NCCCN1CCN(c2cccc(Cl)c2)CC1)NC12CC3CC(CC(C3)C1)C2 [Example 6, N-[3-[4-(3-chlorophenyl)-1-piperazinyl]propyl]-N'-tricyclo[3.3.1.1(3,7)]dec-1-ylurea] | –
100% | – | 66% | – | COc1ccccc1N1CCN(CCCNC(=O)NC23CC4CC(CC(C4)C2)C3)CC1 [Example 5, N-[3-[4-(2-methoxyphenyl)-1-piperazinyl]propyl]-N'-tricyclo[3.3.1.1(3,7)]dec-1-ylurea] | –
